Laboratory results from ChEMBL document CHEMBL4342421, “Current scenario of tetrazole hybrids for antibacterial activity” (Eur J Med Chem, 2019).
Converted amounts (≈) assume the structure as drawn.

Key:
Escherichia coli [1] = assay: Antimicrobial activity against Escherichia coli; type: functional
Pseudomonas aeruginosa [2] = assay: Antimicrobial activity against Pseudomonas aeruginosa; type: functional
Staphylococcus aureus [3] = assay: Antimicrobial activity against Staphylococcus aureus; type: functional
Bacillus subtilis [4] = assay: Antimicrobial activity against Bacillus subtilis; type: functional
Bacillus subtilis [5] = assay: Potency index, ratio of streptomycin MIC to test compound MIC for antimicrobial activity against Bacillus subtilis; type: functional
Escherichia coli [6] = assay: Potency index, ratio of streptomycin MIC to test compound MIC for antimicrobial activity against Escherichia coli; type: functional
Pseudomonas aeruginosa [7] = assay: Potency index, ratio of streptomycin MIC to test compound MIC for antimicrobial activity against Pseudomonas aeruginosa; type: functional
Klebsiella pneumoniae = assay: Antimicrobial activity against Klebsiella pneumoniae; type: functional
Proteus vulgaris = assay: Antimicrobial activity against Proteus vulgaris; type: functional
Salmonella typhimurium = assay: Antimicrobial activity against Salmonella typhimurium; type: functional, Salmonella enterica subsp. enterica serovar Typhimurium; settings: Salmonella enterica
Listeria monocytogenes = assay: Antimicrobial activity against Listeria monocytogenes; type: functional
Enterococcus faecalis = assay: Antimicrobial activity against Enterococcus faecalis; type: functional
Candida albicans [8] = assay: Antifungal activity against Candida albicans; type: functional
Nakaseomyces glabratus = assay: Antifungal activity against Candida glabrata; type: functional
Candida tropicalis = assay: Antifungal activity against Candida tropicalis; type: functional
[9] = Half life in rat; type: ADME; settings: in vivo
[10] = AUC in rat; type: ADME; settings: in vivo
Bacillus subtilis [11] = assay: Potency index, ratio of ciprofloxacin MIC to test compound MIC for antimicrobial activity against Bacillus subtilis; type: functional
Escherichia coli [12] = assay: Potency index, ratio of ciprofloxacin MIC to test compound MIC for antimicrobial activity against Escherichia coli; type: functional
NIH3T3 = assay: Cytotoxicity against mouse NIH/3T3 cells assessed as reduction in cell viability; type: cell-based
C6 = assay: Anticancer activity against rat C6 cells; type: functional, cell-based
[13] = Clearance in rat; type: ADME; settings: in vivo
Staphylococcus aureus [14] = assay: Antimicrobial activity against Staphylococcus aureus assessed as zone of inhibition at 100 ug/ml; type: functional; settings: read-out: IZ
Escherichia coli [15] = assay: Antimicrobial activity against Escherichia coli assessed as zone of inhibition at 100 ug/ml; type: functional; settings: read-out: IZ
Bacillus subtilis [16] = assay: Antimicrobial activity against Bacillus subtilis assessed as zone of inhibition at 100 ug/ml; type: functional; settings: read-out: IZ
Streptococcus = assay: Antimicrobial activity against Streptococcus assessed as zone of inhibition at 100 ug/ml; type: functional; settings: read-out: IZ
Bacillus cereus [17] = assay: Antimicrobial activity against Bacillus cereus; type: functional
[18] = system: Talaromyces purpureogenus; assay: Antifungal activity against Penicillium purpurogenum; type: functional
Aspergillus flavus = assay: Antifungal activity against Aspergillus flavus; type: functional
Trichothecium roseum = assay: Antifungal activity against Trichothecium roseum; type: functional
Staphylococcus aureus [19] = assay: Antimicrobial activity against Staphylococcus aureus assessed as zone of inhibition at 250 ug/ml; type: functional; settings: read-out: IZ
Bacillus cereus [20] = assay: Antimicrobial activity against Bacillus cereus assessed as zone of inhibition at 250 ug/ml; type: functional; settings: read-out: IZ
Escherichia coli [21] = assay: Antimicrobial activity against Escherichia coli assessed as zone of inhibition at 250 ug/ml; type: functional; settings: read-out: IZ
Pseudomonas aeruginosa [22] = assay: Antimicrobial activity against Pseudomonas aeruginosa assessed as zone of inhibition at 250 ug/ml; type: functional; settings: read-out: IZ
Candida albicans [23] = assay: Antifungal activity against Candida albicans assessed as zone of inhibition at 250 ug/ml; type: functional; settings: read-out: IZ
Aspergillus niger = assay: Antifungal activity against Aspergillus niger assessed as zone of inhibition at 250 ug/ml; type: functional; settings: read-out: IZ
Escherichia coli [24] = assay: Antimicrobial activity against Escherichia coli assessed as zone of inhibition at 30 ug/ml; type: functional; settings: read-out: IZ
Staphylococcus aureus [25] = assay: Antimicrobial activity against Staphylococcus aureus assessed as zone of inhibition at 30 ug/ml; type: functional; settings: read-out: IZ
Candida albicans [26] = assay: Antifungal activity against Candida albicans assessed as zone of inhibition at 30 ug/ml; type: functional; settings: read-out: IZ
Pseudomonas aeruginosa [27] = assay: Antimicrobial activity against Pseudomonas aeruginosa assessed as zone of inhibition at 30 ug/ml; type: functional; settings: read-out: IZ
Bacillus subtilis [28] = assay: Antimicrobial activity against Bacillus subtilis assessed as zone of inhibition at 30 ug/ml; type: functional; settings: read-out: IZ
Aspergillus fumigatus [29] = assay: Antifungal activity against Aspergillus fumigatus assessed as zone of inhibition at 30 ug/ml; type: functional; settings: read-out: IZ
Escherichia coli [30] = assay: Antimicrobial activity against Escherichia coli assessed as zone of inhibition at 250 ug/ml after 24 hrs by disk diffusion method; type: functional; settings: read-out: IZ
Escherichia coli [31] = assay: Antimicrobial activity against Escherichia coli assessed as zone of inhibition at 600 ug/ml after 24 hrs by disk diffusion method; type: functional; settings: read-out: IZ
Streptococcus pyogenes = assay: Antimicrobial activity against Streptococcus pyogenes; type: functional
Escherichia coli [32] = assay: Antimicrobial activity against Escherichia coli assessed as zone of inhibition at 10 ug/ml; type: functional; settings: read-out: IZ
Staphylococcus aureus [33] = assay: Antimicrobial activity against Staphylococcus aureus assessed as zone of inhibition at 10 ug/ml; type: functional; settings: read-out: IZ
Candida albicans [34] = assay: Antifungal activity against Candida albicans assessed as zone of inhibition at 10 ug/ml; type: functional; settings: read-out: IZ
Pseudomonas aeruginosa [35] = assay: Antimicrobial activity against Pseudomonas aeruginosa assessed as zone of inhibition at 10 ug/ml; type: functional; settings: read-out: IZ
Bacillus subtilis [36] = assay: Antimicrobial activity against Bacillus subtilis assessed as zone of inhibition at 10 ug/ml; type: functional; settings: read-out: IZ
Aspergillus fumigatus [37] = assay: Antifungal activity against Aspergillus fumigatus assessed as zone of inhibition at 10 ug/ml; type: functional; settings: read-out: IZ

## O=c1c(OCc2nnn[nH]2)c(-c2ccc(F)cc2)oc2ccccc12
Escherichia coli [1]
  MIC: 100 µg/mL (≈ 296 µM)
Pseudomonas aeruginosa [2]
  MIC: 100 µg/mL (≈ 296 µM)
Staphylococcus aureus [3]
  MIC: 100 µg/mL (≈ 296 µM)
Bacillus subtilis [4]
  MIC: 100 µg/mL (≈ 296 µM)
Bacillus subtilis [5]
  Ratio: 2 - 4
Escherichia coli [6]
  Ratio: 2 - 4
Pseudomonas aeruginosa [7]
  Ratio: 2 - 4

## Cn1c(-c2ccc(NC(=O)CSc3nnnn3-c3ccccc3)cc2)nc2cc(Cl)c(Cl)cc21
Escherichia coli [1]
  MIC: 12.5 to 400 µg/mL (≈ 24.5 to 784 µM)
Pseudomonas aeruginosa [2]
  MIC: 12.5 to 400 µg/mL (≈ 24.5 to 784 µM)
Staphylococcus aureus [3]
  MIC: 12.5 to 400 µg/mL (≈ 24.5 to 784 µM)
Bacillus subtilis [4]
  MIC: 12.5 to 400 µg/mL (≈ 24.5 to 784 µM)
Klebsiella pneumoniae
  MIC: 12.5 to 400 µg/mL (≈ 24.5 to 784 µM)
Proteus vulgaris
  MIC: 12.5 to 400 µg/mL (≈ 24.5 to 784 µM)
Salmonella typhimurium
  MIC: 12.5 to 400 µg/mL (≈ 24.5 to 784 µM)
Listeria monocytogenes
  MIC: 12.5 to 400 µg/mL (≈ 24.5 to 784 µM)
Enterococcus faecalis
  MIC: 12.5 to 400 µg/mL (≈ 24.5 to 784 µM)
Candida albicans [8]
  MIC: 12.5 to 400 µg/mL (≈ 24.5 to 784 µM)
Nakaseomyces glabratus
  MIC: 12.5 to 400 µg/mL (≈ 24.5 to 784 µM)
Candida tropicalis
  MIC: 12.5 to 400 µg/mL (≈ 24.5 to 784 µM)

## C[C@@H](O)[C@H]1C(=O)N2C(C(=O)O)=C(SCCN=CN)C[C@H]12 [IMIPENEM ANHYDROUS]
[9]
  t1/2: 3.46 h
[10]
  AUC: 5500 ng·h/mL

## COc1ccc(/C=C2\SC(=O)N(Cc3ccc(-c4ccccc4-c4nnn[nH]4)cc3)C2=O)cc1
Escherichia coli [1]
  MIC: 7.7 µg/mL (≈ 16.4 µM)
Bacillus subtilis [4]
  MIC: 8.33 µg/mL (≈ 17.7 µM)
Bacillus subtilis [11]
  Ratio: >2.91
Escherichia coli [12]
  Ratio: >2.91

## O=C(CSc1nnnn1-c1ccccc1)N/N=c1\scc(-c2ccccc2)n1-c1ccccc1
NIH3T3
  IC50: 417 µg/mL (≈ 858 µM)
C6
  IC50: 8.3 µg/mL (≈ 17.1 µM)

## C[C@@H](O)[C@H]1C(=O)N2C(C(=O)O)=C(S[C@@H]3CN[C@H](C(=O)N(C)C)C3)[C@H](C)[C@H]12 [MEROPENEM]
[9]
  t1/2: 3.99 h
[13]
  clearance: 51.2 mL/min/kg

## Clc1cccc(-c2nnc(SCc3ccc(-c4ccccc4-c4nn[nH]n4)cc3)o2)c1
Staphylococcus aureus [14]
  zone of inhibition at 100 µg/mL: 20 to 27 mm
Escherichia coli [15]
  zone of inhibition at 100 µg/mL: 20 to 27 mm
Bacillus subtilis [16]
  zone of inhibition at 100 µg/mL: 20 to 27 mm
Streptococcus
  zone of inhibition at 100 µg/mL: 20 to 27 mm

## N=C(N)Nc1nnn(Cc2cccc(Cn3nnc(C(=N)N)n3)c2)n1
Escherichia coli [1]
  MIC: 30 to 40 µg/mL (≈ 87.9 to 117 µM)
Pseudomonas aeruginosa [2]
  MIC: 30 to 40 µg/mL (≈ 87.9 to 117 µM)
Bacillus cereus [17]
  MIC: 30 to 40 µg/mL (≈ 87.9 to 117 µM)
Bacillus subtilis [4]
  MIC: 30 to 40 µg/mL (≈ 87.9 to 117 µM)
[18]
  MIC: 30 to 40 µg/mL (≈ 87.9 to 117 µM)
Aspergillus flavus
  MIC: 30 to 40 µg/mL (≈ 87.9 to 117 µM)
Trichothecium roseum
  MIC: 30 to 40 µg/mL (≈ 87.9 to 117 µM)

## CC1(C)S[C@@H]2[C@H](NC(=O)[C@H](N)c3ccc(O)cc3)C(=O)N2[C@H]1C(=O)O [AMOXICILLIN]
Staphylococcus aureus [19]
  zone of inhibition at 250 µg/mL: 21 to 27 mm
Bacillus cereus [20]
  zone of inhibition at 250 µg/mL: 21 to 27 mm
Escherichia coli [21]
  zone of inhibition at 250 µg/mL: 21 to 27 mm
Pseudomonas aeruginosa [22]
  zone of inhibition at 250 µg/mL: 21 to 27 mm
Candida albicans [23]
  zone of inhibition at 250 µg/mL: 21 to 27 mm
Aspergillus niger
  zone of inhibition at 250 µg/mL: 21 to 27 mm
Escherichia coli [24]
  zone of inhibition at 30 µg/mL: 25 to 28 mm
Staphylococcus aureus [25]
  zone of inhibition at 30 µg/mL: 25 to 28 mm
Candida albicans [26]
  zone of inhibition at 30 µg/mL: 25 to 28 mm
Pseudomonas aeruginosa [27]
  zone of inhibition at 30 µg/mL: 25 to 28 mm
Bacillus subtilis [28]
  zone of inhibition at 30 µg/mL: 25 to 28 mm
Aspergillus fumigatus [29]
  zone of inhibition at 30 µg/mL: 25 to 28 mm
Escherichia coli [30]
  zone of inhibition at 250 µg/mL: 21 to 27 mm

## c1ccc2c(c1)sc1nnnn12
Escherichia coli [31]
  zone of inhibition at 600 µg/mL: 15 to 20 mm

## COc1cccc(OC)c1/C=C1\SC(=O)N(Cc2ccc(-c3ccccc3-c3nnn[nH]3)cc2)C1=O
Escherichia coli [1]
  MIC: 8.58 µg/mL (≈ 17.2 µM)
Bacillus subtilis [4]
  MIC: 8.41 µg/mL (≈ 16.8 µM)
Bacillus subtilis [11]
  Ratio: >2.91
Escherichia coli [12]
  Ratio: >2.91

## O=C(O)c1cn(C2CC2)c2cc(N3CCN(C(=O)Cn4nnnc4S)CC3)c(F)cc2c1=O
Staphylococcus aureus [3]
  MIC: 2 to 128 µg/mL (≈ 4.22 to 270 µM)
Klebsiella pneumoniae
  MIC: 2 to 128 µg/mL (≈ 4.22 to 270 µM)
Proteus vulgaris
  MIC: 2 to 128 µg/mL (≈ 4.22 to 270 µM)
Streptococcus pyogenes
  MIC: 2 to 128 µg/mL (≈ 4.22 to 270 µM)

## CC(=O)N1CCN(c2ccc(OCC3COC(Cn4ccnc4)(c4ccc(Cl)cc4Cl)O3)cc2)CC1 (stereo not drawn) [KETOCONAZOLE]
Bacillus subtilis [4]
  MIC: 100 µg/mL (≈ 188 µM)
Candida albicans [8]
  MIC: 100 µg/mL (≈ 188 µM)
Staphylococcus aureus [19]
  zone of inhibition at 250 µg/mL: 23 to 26 mm
Bacillus cereus [20]
  zone of inhibition at 250 µg/mL: 23 to 26 mm
Escherichia coli [21]
  zone of inhibition at 250 µg/mL: 23 to 26 mm
Pseudomonas aeruginosa [22]
  zone of inhibition at 250 µg/mL: 23 to 26 mm
Candida albicans [23]
  zone of inhibition at 250 µg/mL: 23 to 26 mm
Aspergillus niger
  zone of inhibition at 250 µg/mL: 23 to 26 mm
Escherichia coli [32]
  zone of inhibition at 10 µg/mL: 23 to 24 mm
Staphylococcus aureus [33]
  zone of inhibition at 10 µg/mL: 23 to 24 mm
Candida albicans [34]
  zone of inhibition at 10 µg/mL: 23 to 24 mm
Pseudomonas aeruginosa [35]
  zone of inhibition at 10 µg/mL: 23 to 24 mm
Bacillus subtilis [36]
  zone of inhibition at 10 µg/mL: 23 to 24 mm
Aspergillus fumigatus [37]
  zone of inhibition at 10 µg/mL: 23 to 24 mm

## N=C(N)Nc1nnn(Cc2ccccc2Cn2nnc(C(=N)N)n2)n1
Escherichia coli [1]
  MIC: 30 to 40 µg/mL (≈ 87.9 to 117 µM)
Pseudomonas aeruginosa [2]
  MIC: 30 to 40 µg/mL (≈ 87.9 to 117 µM)
Bacillus cereus [17]
  MIC: 30 to 40 µg/mL (≈ 87.9 to 117 µM)
Bacillus subtilis [4]
  MIC: 30 to 40 µg/mL (≈ 87.9 to 117 µM)
[18]
  MIC: 30 to 40 µg/mL (≈ 87.9 to 117 µM)
Aspergillus flavus
  MIC: 30 to 40 µg/mL (≈ 87.9 to 117 µM)
Trichothecium roseum
  MIC: 30 to 40 µg/mL (≈ 87.9 to 117 µM)
